According to patent publication US20080076824A1, “Compounds That Inhibit Replication Of Human Immunodeficiency Virus” (priority 2004, published 2008):

Experiment: Conversion of G-NH2 to modified G-NH2 by dialyzed pig plasma (cation exchange HPLC)
Format: in vitro ADME
Conditions: for conversion to modified G-NH2 (24 hr) (percent conversion) Dialysed Pig plasma: 37° C.; for Percent conversion / μM formation: 6 hr
Method: In still another set of experiments, a first step isolation of the cofactor present in pig plasma was performed and the enzymatic activity of the isolated product was compared to the enzymatic activity of the crude product. An aliquot of pig plasma was placed in dialysis tubing (MW cut off 10,000) and the serum was subjected to dialysis. Subsequently, the pig plasma dialysate was evaluated for the ability to convert G-NH2 to modified G-NH2.
Various concentrations of G-NH2 were mixed with either 90% pig plasma or 90% dialyzed pig plasma in PBS and the reactions were conducted at 37° C. for 24 hours. Subsequently, aliquots of the mixtures were separated by cation exchange HPLC, as described previously, and the conversion of G-NH2 to modified G-NH2 was evaluated. […] Saturation of the enzyme activity of cofactor(s) in pig plasma (90% in PBS) occurred between 1,000 μM and 10,000 μM G-NH2.
In still another set of experiments, the saturation point of the isolated cofactor found in pig plasma was more closely scrutinized. Dialyzed pig plasma (90% in PBS) was mixed with concentrations of G-NH2 between […] and 10,000 μM. Subsequently, the mixtures were incubated at 37° C. for 6 hours and aliquots were separated by cation exchange HPLC, as before. The results shown in TABLE 8 confirmed that the saturation point of the cofactor(s) in pig plasma was near 2,000 μM G-NH2.

[1] = 2,000 μM G-NH2, dialyzed pig plasma 90% in PBS
[2] = 4,000 μM G-NH2, dialyzed pig plasma 90% in PBS
[3] = 6,000 μM G-NH2, dialyzed pig plasma 90% in PBS
[4] = 8,000 μM G-NH2, dialyzed pig plasma 90% in PBS
[5] = 10,000 μM G-NH2, dialyzed pig plasma 90% in PBS

NCC(N)=O [G-NH2, glycinamide]
conversion to modified G-NH2 (24 hr) (percent conversion) Dialysed Pig plasma (18 μM G-NH2, 90% in PBS): 99.8% | conversion to modified G-NH2 (24 hr) (percent conversion) Dialysed Pig plasma (100 μM G-NH2, 90% in PBS): 99.8% | conversion to modified G-NH2 (24 hr) (percent conversion) Dialysed Pig plasma (1,000 μM G-NH2, 90% in PBS): 99.8% | Percent conversion [1]: 82.6% | μM formation [1]: 1,652 μM | Percent conversion [2]: 42.1% | μM formation [2]: 1,684 μM | Percent conversion [3]: 24.9% | μM formation [3]: 1,494 μM | Percent conversion [4]: 21.0% | μM formation [4]: 1,680 μM | conversion to modified G-NH2 (24 hr) (percent conversion) Dialysed Pig plasma (10,000 μM G-NH2, 90% in PBS): 24.7% | Percent conversion [5]: 17.0% | μM formation [5]: 1,700 μM
